Assay results reported in patent US20250144067A1, “PERSONALIZED STARVATION THERAPY FOR CANCER” (Faeth Therapeutics, Inc., priority 2021, published 2025).
Read-outs that look alike come from different tables or passages of the source. Ends that are not written are not given here.

Tests used:
[1] = test system: NCI-H292 lung cancer cells; assay: FDA drug screening, complete media vs cholesterol-free media without statin (TABLE 1); type: cell-based, human
[2] = test system: NCI-H292 lung cancer cells; assay: FDA drug screening, complete media vs cholesterol-free media with simvastatin (TABLE 2); type: cell-based, human
[3] = Complete minus Cholesterol-free, greater than 0 enhanced anti-cancer activity, about 0 neutral, below 0 antagonists
[4] = NCI-H292 cells in cholesterol-free media without statin
[5] = NCI-H292 cells in complete media
[6] = NCI-H292 cells, cholesterol-free media with simvastatin 0.04 μM, FDA drug library screen (TABLE 2)
[7] = NCI-H292 cells, complete media, FDA drug library screen (TABLE 2)
[8] = complete media minus cholesterol-free media + simvastatin (0.04 μM), >0 enhanced anti-cancer activity, about 0 neutral, <0 antagonist
[9] = Complete minus Cholesterol-free, […]
[10] = complete media minus cholesterol-free media + simvastatin, […]
[11] = NCI-H292 cells, cholesterol-free media without statin, FDA drug library screen
[12] = NCI-H292 cells, complete media, FDA drug library screen
[13] = complete vs cholesterol-free media, […]
[14] = NCI-H292 cells, FDA drug library screen, cholesterol-free media with simvastatin 0.04 μM
[15] = NCI-H292 cells, FDA drug library screen, complete media
[16] = complete media vs cholesterol-free media + simvastatin (0.04 μM), […]
[17] = Complete minus Cholesterol-free, greater than 0 enhanced anti-cancer activity, about 0 neutral, below 0 antagonist
[18] = NCI-H292 cells, FDA drug library screen, cholesterol-free media without statin
[19] = complete media minus cholesterol-free media + simvastatin, >0 enhanced anti-cancer activity, about 0 neutral, <0 antagonist
[20] = Complete minus Cholesterol-free, >0 enhanced anti-cancer activity, about 0 neutral, <0 antagonist
[21] = NCI-H292 cells, cholesterol-free media without statin
[22] = NCI-H292 cells, cholesterol-free media with simvastatin 0.04 μM, cell growth value in FDA drug screen
[23] = NCI-H292 cells, drug in cholesterol-free media with simvastatin 0.04 μM
[24] = NCI-H292 cells, drug in complete media
[25] = complete media vs cholesterol-free media + simvastatin (0.04 μM), >0 enhanced anti-cancer activity, about 0 neutral, <0 antagonist

In the case of Chloramphenicol succinate (sodium), the Cholesterol-free [1] is reported as 0.9119, the Complete [1] is reported as 0.8447 and the Difference [1] is reported as −0.07. For the same substance, the “Cholesterol-free media + simvastatin (0.04 μM)” value [2] was 0.9173, the “Complete Media” value [2] was 0.8083 and the Difference [2] was −0.11.
Substance Chloroquine (phosphate) has a Cholesterol-free [1] of 1.557, a Complete [1] of 0.9171 and a Difference [1] of −0.64. The “Cholesterol-free media + simvastatin (0.04 μM)” value [2] was 1.286, the “Complete Media” value [2] was 0.98 and the Difference [2] was −0.31.
Work on Chlorpheniramine (maleate) yielded a Difference [1, 3] of −0.51, a Cholesterol-free [1, 4] of 1.451 and a Complete [1, 5] of 0.9428. The “Cholesterol-free media + simvastatin (0.04 μM)” value [2, 6] was 1.426, the “Complete Media” value [2, 7] was 1.414 and the Difference [2, 8] was −0.01.
Chondroitin (sulfate) showed a Difference [1, 9] of −0.48, a Cholesterol-free [1, 4] of 1.247 and a Complete [1, 5] of 0.7715. For the same substance, the “Cholesterol-free media + simvastatin (0.04 μM)” value ([2]; NCI-H292 cells, cholesterol-free media with simvastatin 0.04 μM, […]) was 1.097, the “Complete Media” value ([2]; NCI-H292 cells, complete media, […]) was 1.158 and the Difference [2, 10] was 0.06.
Cinepazide (Maleate) showed a Cholesterol-free [1, 11] of 0.7192, a Complete [1, 12] of 1.265 and a Difference [1, 13] of 0.55. The “Cholesterol-free media + simvastatin (0.04 μM)” value [2, 14] was 1.132, the “Complete Media” value [2, 15] was 1.001 and the Difference [2, 16] was −0.13.
Cisatracurium (besylate) showed a Difference [1, 17] of −0.15, a Cholesterol-free [1, 18] of 1.321 and a Complete [1, 15] of 1.173. For the same substance, the “Cholesterol-free media + simvastatin (0.04 μM)” value [2, 14] was 1.09, the “Complete Media” value [2, 15] was 1.349 and the Difference [2, 19] was 0.26.
Clebopride (malate) gave a Difference [1, 20] of −0.29, a Cholesterol-free [1, 21] of 0.9703 and a Complete ([1]; NCI-H292 cells, complete media) of 0.6807. The “Cholesterol-free media + simvastatin (0.04 μM)” value [2, 6] was 0.7532, the “Complete Media” value [2, 7] was 0.7281 and the Difference [2, 8] was −0.03.
With Clemastine (fumarate) the Difference [1, 3] was −0.61, the Cholesterol-free [1, 4] was 1.716 and the “Cholesterol-free media + simvastatin (0.04 μM)” value [2, 22] was 0.8829. For the same substance, the Difference [2, 19] was 0.12.
In the case of Clomiphene (citrate), the Difference [1, 20] is reported as −0.25, the Cholesterol-free [1, 21] is reported as 1.001 and the Complete ([1]; NCI-H292 cells, complete media) is reported as 0.7484. For the same substance, the “Cholesterol-free media + simvastatin (0.04 μM)” value [2, 14] was 0.1462, the “Complete Media” value [2, 15] was 1.001 and the Difference [2, 19] was 0.85.
Substance Clopidogrel (hydrogen sulfate) has a Difference [1, 17] of −0.10, a Cholesterol-free [1, 18] of 1.157 and a Complete [1, 15] of 1.053. For the same substance, the “Cholesterol-free media + simvastatin (0.04 μM)” value [2, 23] was 1.048, the “Complete Media” value [2, 24] was 0.8246 and the Difference [2, 25] was −0.22.
Cobimetinib (hemifumarate) gave a Difference [1, 20] of 0.01, a Cholesterol-free [1, 11] of 0.2855 and a Complete [1, 12] of 0.2917. For the same substance, the “Cholesterol-free media + simvastatin (0.04 μM)” value [2, 23] was 0.5239, the “Complete Media” value [2, 24] was 0.3203 and the Difference [2, 25] was −0.20.
In the case of Colistin (sulfate), the Difference [1, 13] is reported as 0.08, the “Cholesterol-free media + simvastatin (0.04 μM)” value [2, 23] is reported as 1.189 and the “Complete Media” value [2, 24] is reported as 0.9801. For the same substance, the Difference [2, 16] was −0.21.
“Cyclic somatostatin (AGCKNFFWKTFTSC; not fully specified (bridges); cysteine pairing not given here; UniProt P61278 103-116, looked up)” gave a Difference [1, 9] of 0.00, a Cholesterol-free [1, 11] of 1.02 and a Complete [1, 12] of 1.023. For the same substance, the “Cholesterol-free media + simvastatin (0.04 μM)” value [2, 6] was 0.9769 and the Difference ([2]; complete media minus cholesterol-free media + simvastatin (0.04 μM), […]) was −0.04.
Substance Dabigatran etexilate (mesylate) has a Difference [1, 20] of −0.23, a Cholesterol-free [1, 21] of 1.215 and a Complete ([1]; NCI-H292 cells, complete media) of 0.9831. For the same substance, the “Cholesterol-free media + simvastatin (0.04 μM)” value [2, 14] was 1.092, the “Complete Media” value [2, 15] was 0.9893 and the Difference [2, 25] was −0.10.
Dabrafenib (Mesylate) showed a Cholesterol-free [1, 11] of 0.4044, a Complete [1, 12] of 0.6337 and a Difference [1, 13] of 0.23. The “Cholesterol-free media + simvastatin (0.04 μM)” value [2, 14] was 0.4336, the “Complete Media” value [2, 15] was 0.6478 and the Difference [2, 10] was 0.21.
Danofloxacin (mesylate) showed a Difference [1, 3] of −0.77, a Cholesterol-free [1, 4] of 1.786 and a Complete [1, 5] of 1.013. The “Cholesterol-free media + simvastatin (0.04 μM)” value [2, 22] was 0.9788, the “Complete Media” value ([2]; NCI-H292 cells, complete media, cell growth value in FDA drug screen) was 1.081 and the Difference [2, 19] was 0.10.
